Test results reported in US20100298141A1, “SUBSTITUTED PYRIDINE N-OXIDE HERBICIDES” (E. I. DU PONT DE NEMOURS AND COMPANY, priority 2007, published 2010).

Tests used:
velvetleaf [1] = assay: Test A pre-/postemergence greenhouse test; format: in vivo, Abutilon theophrasti; details: for Plant response rating, Velvetleaf: 0 to 100 scale where 0 is no effect and 100 is complete control; for Velvetleaf plant response rating: 0 to 100 scale
In short: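 Test compounds in non-phytotoxic solvent with surfactant were applied as a preemergence soil spray to seeded loam/sand pots and, concurrently, postemergence to plants at 2–10 cm, one- to two-leaf stage. About ten days in greenhouse, then injury visually rated against untreated controls.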

blackgrass = assay: Test C pre-/postemergence test; format: in vivo, Alopecurus myosuroides; details: for Plant response rating, Blackgrass: 31 g ai/ha, scale 0 to 100 (0 no effect, 100 complete control)
In short: (§1)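 Compounds in a non-phytotoxic solvent with surfactant applied preemergence to seeded pots and, at the same time, postemergence to plants 2–18 cm tall (1- to 4-leaf stage). Paddy tests: pots flooded to 3 cm, compound applied into the water, depth held throughout.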

downy brome = assay: Test C pre-/postemergence test; format: in vivo, Bromus tectorum; details: for Plant response rating, Bromegrass, Downy: 31 g ai/ha, scale 0 to 100 (0 no effect, 100 complete control)
In short: as §1

green foxtail = assay: Test C pre-/postemergence test; format: in vivo, Setaria viridis; details: for Plant response rating, Foxtail, Green: 31 g ai/ha, scale 0 to 100 (0 no effect, 100 complete control)
In short: as §1

Italian ryegrass = assay: Test C pre-/postemergence test; format: in vivo, Lolium multiflorum; details: for Plant response rating, Ryegrass, Italian: 31 g ai/ha, scale 0 to 100 (0 no effect, 100 complete control)
In short: as §1

wild oat = assay: Test C pre-/postemergence test; format: in vivo, Avena fatua; details: for Plant response rating, Oat, Wild: 31 g ai/ha, scale 0 to 100 (0 no effect, 100 complete control)
In short: as §1

catchweed bedstraw = assay: Test C pre-/postemergence test; format: in vivo, Galium aparine
In short: as §1

cocklebur = assay: Test C pre-/postemergence test; format: in vivo, Xanthium strumarium; details: for Plant response rating, Cocklebur: 31 g ai/ha, scale 0 to 100 (0 no effect, 100 complete control)
In short: as §1

corn = assay: Test C pre-/postemergence test; format: in vivo, Zea mays; details: for Plant response rating, Corn: 31 g ai/ha, scale 0 to 100 (0 no effect, 100 complete control)
In short: as §1

woolly cupgrass = assay: Test C pre-/postemergence test; format: in vivo, Eriochloa villosa; details: for Plant response rating, Cupgrass, Woolly: 31 g ai/ha, scale 0 to 100 (0 no effect, 100 complete control)
In short: as §1

giant foxtail = assay: Test C pre-/postemergence test; format: in vivo, Setaria faberii; details: for Plant response rating, Foxtail, Giant: 31 g ai/ha, scale 0 to 100 (0 no effect, 100 complete control)
In short: as §1

johnsongrass = assay: Test C pre-/postemergence test; format: in vivo, Sorghum halepense; details: for Plant response rating, Johnsongrass: 31 g ai/ha, scale 0 to 100 (0 no effect, 100 complete control)
In short: as §1

morningglory = assay: Test C pre-/postemergence test; format: in vivo, Ipomoea coccinea; details: for Plant response rating, Morningglory: 31 g ai/ha, scale 0 to 100 (0 no effect, 100 complete control)
In short: as §1

soybean = assay: Test C pre-/postemergence test; format: in vivo, Glycine max
In short: as §1

velvetleaf [2] = assay: Test C pre-/postemergence test; format: in vivo, Abutilon theophrasti; details: for Plant response rating, Velvetleaf: 31 g ai/ha, scale 0 to 100 (0 no effect, 100 complete control)
In short: as §1

duck salad = assay: Test C flooded paddy test; format: in vivo, Heteranthera limosa; details: Flood
In short: (§2)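 Test compounds are applied straight into paddy water held 3 cm above the soil surface, with that flood maintained for the whole test. After 13 to 15 days in the greenhouse, each species is scored visually relative to controls.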

barnyardgrass = assay: Test C flooded paddy test; format: in vivo, Echinochloa crus-galli; details: Flood
In short: as §2

[3] = Postemergence, 500 g ai/ha, 0 is no effect, 100 is complete control
[4] = Preemergence, 125 g ai/ha, 0 no effect, 100 complete control
[5] = 62 g ai/ha, Preemergence, scale 0 to 100
[6] = 125 g ai/ha, preemergence, scale 0 (no effect) to 100 (complete control)
[7] = preemergence, 250 g ai/ha, scale 0 (no effect) to 100 (complete control)
[8] = Preemergence, 31 g ai/ha, scale 0 to 100 (0 no effect, 100 complete control)
[9] = 62 g ai/ha, scale 0 to 100 (0 no effect, 100 complete control)
[10] = 250 g ai/ha, scale 0 to 100, 0 no effect, 100 complete control, 13 to 15 days

With `CCc1cc[n+]([O-])c([S+]([O-])Cc2c(C(F)(F)F)nn(C)c2OCC(F)(F)F)c1` (stereo not shown) [Compound 59] the “Plant response rating, Velvetleaf” value (velvetleaf [1]; Postemergence, 125 g ai/ha) was 60, the “Velvetleaf plant response rating” value (velvetleaf [1]; [3]) was 80 and the “Velvetleaf plant response rating” value (velvetleaf [1]; [4]) was 60. The “Plant response rating, Velvetleaf” value (velvetleaf [1]; Preemergence, 500 g ai/ha) was 100, the “Blackgrass plant response rating” value (blackgrass; [5]) was 95 and the “Blackgrass plant response rating” value (blackgrass; [6]) was 95. For the same molecule, the “Plant response rating, Blackgrass” value (blackgrass; Preemergence) was 60, the “Blackgrass plant response rating” value (blackgrass; [7]) was 100 and the “Bromegrass, Downy plant response rating” value (downy brome; [5]) was 40. For the same molecule, the “Bromegrass, Downy plant response rating” value (downy brome; [6]) was 90, the “Plant response rating, Bromegrass, Downy” value (downy brome; Preemergence) was 20 and the “Bromegrass, Downy plant response rating” value (downy brome; [7]) was 100. For the same molecule, the “Foxtail, Green plant response rating” value (green foxtail; [5]) was 95, the “Foxtail, Green plant response rating” value (green foxtail; [6]) was 100 and the “Plant response rating, Foxtail, Green” value (green foxtail; Preemergence) was 0. For the same molecule, the “Foxtail, Green plant response rating” value (green foxtail; [7]) was 100, the “Ryegrass, Italian plant response rating” value (Italian ryegrass; [5]) was 55 and the “Ryegrass, Italian plant response rating” value (Italian ryegrass; [6]) was 80. The “Plant response rating, Ryegrass, Italian” value (Italian ryegrass; Preemergence) was 30, the “Ryegrass, Italian plant response rating” value (Italian ryegrass; [7]) was 95 and the “Oat, Wild plant response rating” value (wild oat; [5]) was 85. For the same molecule, the “Oat, Wild plant response rating” value (wild oat; [6]) was 90, the “Plant response rating, Oat, Wild” value (wild oat; Preemergence) was 60 and the “Oat, Wild plant response rating” value (wild oat; [7]) was 90. For the same molecule, the “Galium plant response rating” value (catchweed bedstraw; [5]) was 100, the “Galium plant response rating” value (catchweed bedstraw; [6]) was 100 and the “Plant response rating, Galium” value (catchweed bedstraw; [8]) was 0. The “Galium plant response rating” value (catchweed bedstraw; [7]) was 100, the “Cocklebur plant response rating” value (cocklebur; [5]) was 0 and the “Cocklebur plant response rating” value (cocklebur; [6]) was 30. The “Plant response rating, Cocklebur” value (cocklebur; Preemergence) was 0, the “Cocklebur plant response rating” value (cocklebur; [7]) was 80 and the “Corn plant response rating” value (corn; [5]) was 45. The “Corn plant response rating” value (corn; [6]) was 100, the “Plant response rating, Corn” value (corn; Preemergence) was 25 and the “Corn plant response rating” value (corn; [7]) was 100. For the same molecule, the “Cupgrass, Woolly plant response rating” value (woolly cupgrass; [5]) was 80, the “Cupgrass, Woolly plant response rating” value (woolly cupgrass; [6]) was 80 and the “Plant response rating, Cupgrass, Woolly” value (woolly cupgrass; Preemergence) was 0. The “Cupgrass, Woolly plant response rating” value (woolly cupgrass; [7]) was 100, the “Foxtail, Giant plant response rating” value (giant foxtail; [5]) was 55 and the “Foxtail, Giant plant response rating” value (giant foxtail; [6]) was 98. The “Plant response rating, Foxtail, Giant” value (giant foxtail; Preemergence) was 35, the “Foxtail, Giant plant response rating” value (giant foxtail; [7]) was 100 and the “Johnsongrass plant response rating” value (johnsongrass; [5]) was 60. The “Johnsongrass plant response rating” value (johnsongrass; [6]) was 100, the “Plant response rating, Johnsongrass” value (johnsongrass; Preemergence) was 45 and the “Johnsongrass plant response rating” value (johnsongrass; [7]) was 100. For the same molecule, the “Morningglory plant response rating” value (morningglory; [5]) was 100, the “Morningglory plant response rating” value (morningglory; [6]) was 100 and the “Plant response rating, Morningglory” value (morningglory; Preemergence) was 50. For the same molecule, the “Morningglory plant response rating” value (morningglory; [7]) was 100, the “Soybean plant response rating” value (soybean; [5]) was 10 and the “Soybean plant response rating” value (soybean; [6]) was 100. The “Soybean plant response rating” value (soybean; [7]) was 100, the “Velvetleaf plant response rating” value (velvetleaf [2]; [5]) was 70 and the “Velvetleaf plant response rating” value (velvetleaf [2]; [6]) was 100. The “Plant response rating, Velvetleaf” value (velvetleaf [2]; Preemergence) was 0, the “Velvetleaf plant response rating” value (velvetleaf [2]; [7]) was 100 and the “Plant response rating, Ducksalad” value (duck salad; [9]) was 40. The “Plant response rating, Ducksalad” value (duck salad; [10]) was 90, the “Plant response rating, Barnyardgrass” value (barnyardgrass; [9]) was 30 and the “Plant response rating, Barnyardgrass” value (barnyardgrass; [10]) was 60.
`Cn1nc(C(F)(F)C(F)(F)F)c(C[S+]([O-])c2ccc(Cl)c[n+]2[O-])c1OCC(F)(F)F` (stereo not shown) [Compound 92] was tested, and the “Plant response rating, Velvetleaf” value (velvetleaf [1]; Postemergence, 125 g ai/ha) was 50, the “Velvetleaf plant response rating” value (velvetleaf [1]; [3]) was 90 and the “Velvetleaf plant response rating” value (velvetleaf [1]; [4]) was 30. The “Velvetleaf plant response rating” value (velvetleaf [1]; Preemergence, 500 g ai/ha, 0 no effect, 100 complete control) was 100, the “Blackgrass plant response rating” value (blackgrass; [5]) was 100 and the “Blackgrass plant response rating” value (blackgrass; [6]) was 100. For the same molecule, the “Plant response rating, Blackgrass” value (blackgrass; Preemergence) was 85, the “Blackgrass plant response rating” value (blackgrass; [7]) was 100 and the “Bromegrass, Downy plant response rating” value (downy brome; [5]) was 70. For the same molecule, the “Bromegrass, Downy plant response rating” value (downy brome; [6]) was 85, the “Plant response rating, Bromegrass, Downy” value (downy brome; Preemergence) was 50 and the “Bromegrass, Downy plant response rating” value (downy brome; [7]) was 100. For the same molecule, the “Foxtail, Green plant response rating” value (green foxtail; [5]) was 95, the “Foxtail, Green plant response rating” value (green foxtail; [6]) was 98 and the “Plant response rating, Foxtail, Green” value (green foxtail; Preemergence) was 90. The “Foxtail, Green plant response rating” value (green foxtail; [7]) was 100, the “Ryegrass, Italian plant response rating” value (Italian ryegrass; [5]) was 80 and the “Ryegrass, Italian plant response rating” value (Italian ryegrass; [6]) was 100. The “Plant response rating, Ryegrass, Italian” value (Italian ryegrass; Preemergence) was 60, the “Ryegrass, Italian plant response rating” value (Italian ryegrass; [7]) was 100 and the “Oat, Wild plant response rating” value (wild oat; [5]) was 85. The “Oat, Wild plant response rating” value (wild oat; [6]) was 90, the “Plant response rating, Oat, Wild” value (wild oat; Preemergence) was 60 and the “Oat, Wild plant response rating” value (wild oat; [7]) was 100. For the same molecule, the “Galium plant response rating” value (catchweed bedstraw; [5]) was 80, the “Galium plant response rating” value (catchweed bedstraw; [6]) was 95 and the “Galium plant response rating” value (catchweed bedstraw; [7]) was 100. The “Cocklebur plant response rating” value (cocklebur; [5]) was 0, the “Cocklebur plant response rating” value (cocklebur; [6]) was 0 and the “Plant response rating, Cocklebur” value (cocklebur; Preemergence) was 0. For the same molecule, the “Cocklebur plant response rating” value (cocklebur; [7]) was 55, the “Corn plant response rating” value (corn; [5]) was 95 and the “Corn plant response rating” value (corn; [6]) was 98. The “Plant response rating, Corn” value (corn; Preemergence) was 75, the “Corn plant response rating” value (corn; [7]) was 98 and the “Cupgrass, Woolly plant response rating” value (woolly cupgrass; [5]) was 90. For the same molecule, the “Cupgrass, Woolly plant response rating” value (woolly cupgrass; [6]) was 98, the “Plant response rating, Cupgrass, Woolly” value (woolly cupgrass; Preemergence) was 65 and the “Cupgrass, Woolly plant response rating” value (woolly cupgrass; [7]) was 100. The “Foxtail, Giant plant response rating” value (giant foxtail; [5]) was 100, the “Foxtail, Giant plant response rating” value (giant foxtail; [6]) was 100 and the “Plant response rating, Foxtail, Giant” value (giant foxtail; Preemergence) was 98. The “Foxtail, Giant plant response rating” value (giant foxtail; [7]) was 100, the “Johnsongrass plant response rating” value (johnsongrass; [5]) was 98 and the “Johnsongrass plant response rating” value (johnsongrass; [6]) was 100. For the same molecule, the “Plant response rating, Johnsongrass” value (johnsongrass; Preemergence) was 80, the “Johnsongrass plant response rating” value (johnsongrass; [7]) was 100 and the “Morningglory plant response rating” value (morningglory; [5]) was 80. For the same molecule, the “Morningglory plant response rating” value (morningglory; [6]) was 85, the “Plant response rating, Morningglory” value (morningglory; Preemergence) was 0 and the “Morningglory plant response rating” value (morningglory; [7]) was 100. The “Plant response rating, Soybean” value (soybean; [8]) was 0, the “Soybean plant response rating” value (soybean; [7]) was 80 and the “Velvetleaf plant response rating” value (velvetleaf [2]; [5]) was 50. The “Velvetleaf plant response rating” value (velvetleaf [2]; [6]) was 100, the “Plant response rating, Velvetleaf” value (velvetleaf [2]; Preemergence) was 50 and the “Velvetleaf plant response rating” value (velvetleaf [2]; [7]) was 100. For the same molecule, the “Plant response rating, Ducksalad” value (duck salad; [9]) was 55, the “Plant response rating, Ducksalad” value (duck salad; [10]) was 100 and the “Plant response rating, Barnyardgrass” value (barnyardgrass; [9]) was 0. For the same molecule, the “Plant response rating, Barnyardgrass” value (barnyardgrass; [10]) was 75.
